The results in this text go back to patent US9416139B2, “Spiro ring compound as hepatitis C virus (HCV) inhibitor and uses thereof” (SUNSHINE LAKE PHARMA CO., LTD., priority 2012, dated 2016).

One assay concerns HCV 1a replicon. Kind of assay: HCV GT1a replicon assay in Huh-7 cells. The class given is cell-based, Hepatitis C virus. The following applies: Hepatitis C virus; Huh-7 cells transfected with HCV replicon, 72 hours incubation; read-out: EC50 against HCV 1a genotype. The method, then: (§1) HCV Replicon System was utilized as an evaluation model in the present disclosure for verifying the effects of the compounds disclosed herein on HCV. An HCV Replicon assay was first described in Science, 1999, 285 (5424), 110-3. […] To determine the potential anti-HCV effects of the test compounds, luciferase assay and antibiotic Neomycin resistance gene were tested according to the method described in Science. 1999 Jul. 2; 285 (5424), 110-3 and J. Virol. 2003 March; 77 (5), 3007-19.
(§2) In a word, the compounds disclosed herein were tested by using human hepatic carcinoma cell line which is transfected stably HCV GT1a, GT1b or GT2a replicon respectively, and resistant cells Y93H, L31F, P32L or I302V and wild-type cells HCV 1b. HCV Replicon System disclosed herein containing Neomycin resistance gene and Luciferase Reporter Gene, the level of HCV replication in host cells is characterized by the expression level of the NEO gene expression level or Luciferase Reporter Gene, and the effects of the compounds herein inhibit HCV replication can be evaluated. In this article, a real-time quantitative polymerase chain reaction (qPCR) method was used to detect NEO gene expression level, and chemiluminescence method was used to test Luciferase Reporter Gene expression level.
(§3) 1. Test Method for Measuring EC50 of the Compounds Base on Luciferase Assay.
(§4) The Huh-7 cells transfected with HCV replicons system were seeded into 96-well plates (8,000 cells in 125 μL/well) respectively; each test compound was diluted to desired concentration using 5-fold serial dilutions protocol, 10 doses in duplicate, and added to wells with POD™ 810 Plate Assembler. […] In this paper, experiments were repeated twice and set the holes without compounds as negative control.
(§5) 2. Test Method for Measuring EC50 of the Compounds by Detecting Antibiotic G418 Resistance Gene NEO Gene.
(§6) In this paper, experiments were repeated twice and set the holes without compounds as negative control.
In general terms: Replicon systems follow genome replication, usually without infectious particles.

A further assay relates to HCV 1b replicon. Put plainly: HCV GT1b replicon assay in Huh-7 cells. It is filed as cell-based, Hepatitis C virus. The following applies: Hepatitis C virus; Huh-7 cells transfected with HCV replicon, 72 hours incubation; read-out: EC50 against HCV 1b genotype. The method, then: as §1, §2, §3, §4, §5, §6

One may read the EC50 as the concentration giving half of the maximal effect. Turning to `COC(=O)N[C@H](C(=O)N1CCC[C@H]1C1=Nc2cc(-c3ccc(-c4ccc(-c5cnc([C@@H]6CCCN6C(=O)[C@@H](NC(=O)OC)C(C)C)[nH]5)cc4)c4c3CC3(CCCC3)C4)ccc2C(C)(C)N1)C(C)C` [Example 3], the EC50 in the assay on HCV 1a replicon amounted to 0.537 nM; in the assay on HCV 1b replicon, 0.04 nM.
Taken in the same sequence, the figures for `COC(=O)NC(C(=O)N1CCCC1c1cc(=O)c2cc(-c3ccc(-c4ccc(-c5cnc(C6CCCN6C(=O)C(NC(=O)OC)C(C)C)[nH]5)cc4)c4c3CC3(CCCC3)C4)ccc2[nH]1)C(C)C` (stereo not drawn) [Example 35] were 10.6 nM and 0.103 nM.
Turning to `CC(C)[C@H](NC(=O)Oc1ccccc1)C(=O)N1CC(C)(C)C[C@H]1c1ncc(-c2ccc(-c3ccc(-c4ccc5nc([C@@H]6CC(C)(C)CN6C(=O)[C@@H](NC(=O)Oc6ccccc6)C(C)C)[nH]c(=O)c5c4)c4c3CC3(CCCC3)C4)cc2)[nH]1` [Example 19], the EC50 in the assay on HCV 1a replicon was determined as 4.77 nM; in the assay with HCV 1b replicon, 0.436 nM.
Consider `COC(=O)N[C@H](C(=O)N1CCC[C@H]1c1cc(=O)c2cc(-c3ccc(-c4ccc(-c5cnc([C@@H]6CCCN6C(=O)[C@@H](NC(=O)OC)C(C)C)[nH]5)cc4)c4c3CC3(CCCC3)C4)ccc2[nH]1)C(C)C` [Example 2], for which the figures for the half-maximal effective concentration (EC50) in the assay with HCV 1a replicon and in the assay on HCV 1b replicon were 1.28 nM and 0.087 nM, respectively.
`COC(=O)N[C@H](C(=O)N1CCC[C@H]1C1=Nc2cc(-c3ccc(-c4ccc(-c5cnc([C@@H]6CCCN6C(=O)[C@@H](NC(=O)OC)C(C)C)[nH]5)cc4)c4c3CC3(CCCC3)C4)ccc2S(=O)(=O)N1)C(C)C` [Example 5]: the EC50 amounted to 0.078 nM in the assay on HCV 1a replicon and 0.023 nM in the assay with HCV 1b replicon.
In the case of `COC(=O)NC(C(=O)N1CCC[C@H]1c1ncc(-c2ccc(-c3cc(F)c(-c4ccc5nc([C@@H]6CCCN6C(=O)[C@@H](NC(=O)OC)C(C)C)[nH]c(=O)c5c4)c4c3CC3(CCCC3)C4)nc2)[nH]1)C(C)C` (stereo partly drawn) [Example 33], the results for the 50% effective concentration (EC50) in the assay on HCV 1a replicon and in the assay with HCV 1b replicon were 0.078 nM and 0.022 nM, respectively.
For `COC(=O)NC(C(=O)N1CCCC1C1=Nc2cc(-c3ccc(-c4ccc(-c5cnc(C6CCCN6C(=O)C(NC(=O)OC)C(C)C)[nH]5)cc4)c4c3CC3(CCCC3)C4)ccc2C(C)(C)N1)C(C)C` (stereo not drawn) [Example 36], the EC50 is 0.438 nM with HCV 1a replicon and 0.062 nM in the assay with HCV 1b replicon.
Take `COC(=O)N[C@H](C(=O)C1CCCC[C@H]1c1nc2ccc(-c3ccc(-c4ccc(-c5cnc(C6CCCCN6C(=O)[C@@H](NC(=O)OC)C(C)C)[nH]5)cc4)c4c3CC3(CCCC3)C4)cc2c(=O)[nH]1)C(C)C` (stereo partly drawn) [Example 16]: the half-maximal effective concentration (EC50) was 0.089 nM in the assay on HCV 1a replicon and 0.036 nM in the assay with HCV 1b replicon.
As to `COC(=O)N[C@@H](C)C(=O)N1CCC[C@H]1c1ncc(-c2ccc(-c3ccc(-c4ccc5nc([C@@H]6CCCN6C(=O)[C@H](C)NC(=O)OC)[nH]c(=O)c5c4)c4c3CC3(CCCC3)C4)cc2)[nH]1` [Example 14], the EC50 in the assay with HCV 1a replicon worked out at 0.884 nM; in the assay with HCV 1b replicon it was 0.013 nM.
Taken in the same sequence, the figures for `COC(=O)N[C@H](C(=O)N1[C@@H]2CC[C@@H](C2)[C@H]1c1ncc(-c2ccc(-c3ccc(-c4ccc5nc([C@@H]6[C@H]7CC[C@H](C7)N6C(=O)[C@@H](NC(=O)OC)C(C)C)[nH]c(=O)c5c4)c4c3CC3(CCCC3)C4)cc2)[nH]1)C(C)C` [Example 23] were 0.31 nM and 0.047 nM.
Take `COC(=O)N[C@H](C(=O)N1CCC[C@H]1c1ncc(-c2ccc(-c3ncc(-c4ccc5nc([C@@H]6CCCN6C(=O)[C@@H](NC(=O)OC)C(C)C)[nH]c5c4)c4c3CC3(CCCC3)C4)c3ccccc23)[nH]1)C(C)C` [Example 31]: the concentration for a half-maximal effect (EC50) with HCV 1a replicon stood at 5.87 nM; in the assay with HCV 1b replicon it was 0.539 nM.
Taken in the same sequence, the figures for `COC(=O)N[C@H](C(=O)N1CC2(C[C@H]1c1ncc(-c3ccc(-c4ccc(-c5ccc6nc([C@@H]7CCCN7C(=O)[C@@H](NC(=O)OC)C(C)C)[nH]c(=O)c6c5)c5c4CC4(CCCC4)C5)cc3)[nH]1)OCCO2)C(C)C` [Example 24] were 0.475 nM and 0.099 nM.
On to `COC(=O)N[C@H](C(=O)N1CCC[C@H]1c1ncc(-c2ccc(-c3ccc(-c4ccc5nc([C@@H]6CC7CC7N6C(=O)[C@@H](NC(=O)OC)C(C)C)[nH]c(=O)c5c4)c4c3CC3(CCCC3)C4)c3cnoc23)[nH]1)C(C)C` (stereo partly drawn) [Example 27], for which the half-maximal effective concentration (EC50) in the assay on HCV 1a replicon was determined as 1.53 nM; with HCV 1b replicon, 0.323 nM.
Taken in the same sequence, the figures for `COC(=O)N[C@H](C(=O)N1CCC[C@H]1c1ncc(-c2ccc(-c3sc(-c4ccc5nc([C@@H]6CCCN6C(=O)[C@@H](NC(=O)OC)C(C)C)[nH]c(=O)c5c4)c4c3CC3(CCCC3)C4)cc2)[nH]1)C(C)C` [Example 28] were 1.1 nM and 0.763 nM.
Take `COC(=O)N[C@H](C(=O)N1CCC[C@H]1C(=O)Nc1ccc(-c2ccc(-c3ccc4nc([C@@H]5CCCN5C(=O)[C@@H](NC(=O)OC)C(C)C)[nH]c(=O)c4c3)c3c2CC2(CCCC2)C3)cc1)C(C)C` [Example 20]: the 50% effective concentration (EC50) with HCV 1a replicon was 3.67 nM; with HCV 1b replicon, 0.685 nM.
Regarding `COC(=O)N[C@H](C(=O)N1CC(F)(F)CC1c1nc(-c2ccc(-c3ccc(-c4ccc5nc([C@@H]6CC(F)(F)CN6C(=O)[C@@H](NC(=O)OC)C(C)C)[nH]c(=O)c5c4)c4c3CC3(CCOCC3)C4)cc2)c[nH]1)C(C)C` (stereo partly drawn) [Example 12], the EC50 is 0.38 nM with HCV 1a replicon and 0.049 nM in the assay on HCV 1b replicon.
As for `COC(=O)N[C@H](C(=O)N1CCC[C@H]1c1ncc(-c2ccc(-c3ccc(-c4ccc5nc([C@@H]6CCCN6C(=O)[C@@H](NC(=O)OC)C6CCCCC6)[nH]c(=O)c5c4)c4c3CC3(CCCC3)C4)cc2)[nH]1)C1CCCCC1` [Example 15], the EC50 with HCV 1a replicon stood at 0.206 nM; in the assay on HCV 1b replicon, 0.142 nM.
As to `CCC(C)[C@H](NC(=O)OC)C(=O)N1CCC[C@H]1c1nc(=O)c2cc(-c3ccc(-c4ccc(-c5cnc([C@@H]6CCCN6C(=O)[C@@H](NC(=O)OC)C(C)C)[nH]5)cc4)c4c3CC3(CCCCC3)C4)ccc2[nH]1` (stereo partly drawn) [Example 8], the concentration giving a half-maximal response (EC50) came to 0.982 nM in the assay on HCV 1a replicon and 0.065 nM with HCV 1b replicon.
For `COC(=O)N[C@H](C(=O)N1CCC[C@H]1c1nc2ccc(-c3ccc(-c4ccc5nc([C@@H]6CCCN6C(=O)[C@@H](NC(=O)OC)C(C)C)[nH]c(=O)c5c4)c4c3CC3(CCCC3)C4)cc2c(=O)[nH]1)C(C)C` [Example 6], the EC50 in the assay with HCV 1a replicon was determined as 0.109 nM; in the assay on HCV 1b replicon it was 0.077 nM.
In the case of `COC(=O)N[C@H](C(=O)N1C2CC2C[C@H]1c1ncc(-c2ccc(-c3ccc(-c4ccc5nc([C@@H]6CC7CC7N6C(=O)[C@@H](NC(=O)OC)C(C)C)[nH]c(=O)c5c4)c4c3CC3(CCCC3)C4)cc2)[nH]1)C(C)C` (stereo partly drawn) [Example 22], the concentration for a half-maximal effect (EC50) with HCV 1a replicon is 0.561 nM; with HCV 1b replicon it was 0.072 nM.
Turning to `COC(=O)N[C@H](C(=O)N1C[C@@H](F)C[C@H]1c1nc(-c2ccc(-c3ccc(-c4ccc5nc([C@@H]6C[C@H](F)CN6C(=O)[C@@H](NC(=O)OC)C(C)C)[nH]c(=O)c5c4)c4c3CC3(CCCCC3)C4)cc2)c[nH]1)C(C)C` [Example 9], the EC50 was determined as 0.439 nM in the assay with HCV 1a replicon and 0.072 nM in the assay on HCV 1b replicon.
On to `COC(=O)N[C@H](C(=O)N1CCC[C@H]1c1ncc(-c2ccc(-c3ccc(-c4ccc5nc([C@@H]6CCCN6C(=O)[C@@H](NC(=O)OC)C(C)C)[nH]c(=O)c5c4)c4c3CC3(CCCC3)C4)cc2)[nH]1)C(C)C` [Example 1], for which the EC50 with HCV 1a replicon is 0.76 nM; in the assay with HCV 1b replicon it was 0.042 nM.
`COC(=O)N[C@H](C(=O)N1CC2(CC2)C[C@H]1c1ncc(-c2ccc(-c3ccc(-c4ccc5nc([C@@H]6CC7(CC7)CN6C(=O)[C@@H](NC(=O)OC)C(C)C)[nH]c(=O)c5c4)c4c3CC3(CCCC3)C4)cc2)[nH]1)C(C)C` [Example 21]: the EC50 came to 0.08 nM in the assay on HCV 1a replicon and 0.029 nM in the assay with HCV 1b replicon.
In the case of `COC(=O)N[C@H](C(=O)N1CCC[C@H]1c1ncc(-c2ccc(-c3ccc(-c4ccc5nc([C@@H]6CCCN6C(=O)[C@@H](NC(=O)OC)c6ccccc6)[nH]c(=O)c5c4)c4c3CC3(CCCC3)C4)cc2)[nH]1)c1ccccc1` [Example 13], the values for the EC50 with HCV 1a replicon and in the assay on HCV 1b replicon were 2.07 nM and 0.273 nM, respectively.
`COC(=O)N[C@H](C(=O)N1CCC[C@H]1c1ncc(-c2ccc(-c3ccc(-c4ccc5nc([C@@H]6CC7CC7N6C(=O)[C@@H](NC(=O)OC)C(C)C)[nH]c(=O)c5c4)c4c3CC3(CCCC3)C4)c3c2CCC3)[nH]1)C(C)C` (stereo partly drawn) [Example 25]: the half-maximal effective concentration (EC50) was determined as 0.829 nM in the assay with HCV 1a replicon and 0.103 nM in the assay with HCV 1b replicon.
In the case of `COC(=O)N[C@H](C(=O)N1CC(C)(C)C[C@H]1c1ncc(-c2ccc(-c3ccc(-c4ccc5nc([C@@H]6CC(C)(C)CN6C(=O)[C@@H](NC(=O)OC)C(C)C)[nH]c(=O)c5c4)c4c3CC3(CCCC3)C4)cc2)[nH]1)C(C)C` [Example 18], the EC50 in the assay with HCV 1a replicon was found to be 0.326 nM; in the assay on HCV 1b replicon, 0.065 nM.
Consider `COC(=O)N[C@H](C(=O)N1CCC[C@H]1c1ncc(-c2ccc(-c3ncc(-c4ccc5nc([C@@H]6CCCN6C(=O)[C@@H](NC(=O)OC)C(C)C)[nH]c5c4)c4c3CC3(CCCC3)C4)c3c2CCC3)[nH]1)C(C)C` [Example 30], for which the results for the EC50 in the assay with HCV 1a replicon and in the assay with HCV 1b replicon were 0.336 nM and 0.052 nM, respectively.
